Assay results published in US11618883B2, “Method for producing retinal pigment epithelial cells” (SUMITOMO PHARMA CO., LTD., priority 2017, dated 2023).

What was measured:
[1] = tested on: human iPS cells (201B7, 1231A3, Ff-I01, QHJI01 lines); experiment: Production of RPE cells including MEK inhibitor or FGF receptor inhibitor treatment step (first step); observation of brown-black cell population; assay type: cell-based; conditions: for concentrations at which emergence of a brown-black cell population could be confirmed over a wide area: first step 6 days, QHJI01 line, day 36 and day 49 of culture; for emergence of RPE cells showing typical characteristics of RPE cell: 38 to 47 days of culture
From the text: In one embodiment, to study the effect of the FGF receptor inhibitor in a medium free of a factor for maintaining undifferentiated state (bFGF), STEMSURE™ hPSC Medium Δ (Wako Pure Chemical Industries, Ltd.) (hereinafter STEMSURE™ hPSC Medium Δ w/o bFGF) not added with bFGF was used.
2014 Jan. 8; 4: 3594”. The medium used was STEMFIT™ AK03N medium (Ajinomoto Co., Inc.) (hereinafter AK03N medium).

[2] = tested on: human iPS cells (QHJI01 line); experiment: Differentiation induction effect of Nodal and/or Wnt signal transduction pathway inhibitor in the second step; assay type: cell-based; conditions: for emergence of cells showing typical characteristics of RPE cell: second step days 1-12 with 10 μM Y-27632 plus 5 μM SB-431542 and/or 3 μM CKI-7, first step 1 μM PD0325901, day 43
Description: Production of retinal pigment epithelial (RPE) cells including an MEK inhibitor treatment step was performed as follows. iPS cells under culture for maintaining undifferentiated state were treated with 0.5×TRYPLE™ Select cell dissociation solution (mixture of equal amounts of TRYPLE™ Select cell dissociation solution (Life Technologies) and 0.5 mM EDTA/PBS(−)), dissociated using a cell scraper, dispersed to single cells by pipetting, seeded in a 6-well culture plate coated with IMATRIX™-511 laminin 511 E8 fragment (Nippi) (0.5 μg/cm^2) at 2.0×10^4 cells per 1 well and cultured in a ROCK inhibitor [10 μM Y-27632 (Wako Pure Chemical Industries, Ltd.)]-containing AK03N medium under 37° C., 5% CO2 conditions. On the next day of seeding, PD0325901 (SIGMA) (final concentration 1 μM) as MEK inhibitor was added to the AK03N medium (start of the first step) and the cells were exposed thereto for 6 days (completion of the first step). Thereafter, the cells were treated with 0.5×TRYPLE™ Select cell dissociation solution, dissociated using a cell scraper, dispersed to single cells by pipetting, seeded in a 12-well culture plate coated with IMATRIX™-511 laminin 511 E8 fragment (0.5 μg/cm^2) at 0.8×10^5 cells per 1 well and cultured under 37° C., 5% CO2 conditions (start of the second step). In the second step, the following 3 kinds of media were used. […]

RPE65, BEST1, CRALBP = experiment: RT-PCR of retinal pigment epithelial cell markers after MEK inhibitor or FGF receptor inhibitor treatment step; assay type: cell-based, human; conditions: first step 6 days (1 μM PD0325901 or 100 nM PD173074); 1231A3 line; day 43; bands very thin when untreated
Description: 2014 Jan. 8; 4: 3594”. The medium used was […] A[…] medium (Ajinomoto Co., Inc.) (hereinafter A[…] medium). […] After observation on day 43 of culture, the cells were collected, RNA was extracted and RT-PCR was performed. RNEASYTM Micro Kit (QIAGEN) was used for RNA extraction, Oligo(dT)12-18Primer (Invitrogen) and SUPERSCRIPTTM III Reverse Transcriptase (Invitrogen) were used for reverse transcription reaction, and BLEND TAQTM-Plus-(TOYOBO) was used for PCR. The primer sequences of RPE65, BEST1, CRLBP, GAPDH are as described below. […] NO: 1), […] NO: 2), […] NO: 3), […] NO: 4), CRALBP-[…] NO: 5), CRALBP-[…] NO: 6), […] NO: 7), […] NO: 8). The number of cycles of the PCR reaction was 30 cycles for RPE65, BEST1, GAPDH, and 35 cycles for CRALBP. PCR products were detected as a single band by agarose gel electrophoresis at near 369 bp for RPE65, near 261 bp for BEST1, near 341 bp for CRALBP, and near 452 bp for GAPDH. As a positive control, primary human RPE (hRPE) was used and, as a negative control, iPS cells (undifferentiated iPSC) cultured under conditions for maintaining undifferentiated state were used.

[3] = tested on: human iPS cells (1231A3 line); experiment: Production of RPE cells from iPS cells with a ROCK inhibitor in the second step; visual observation of brown-black cell population; assay type: cell-based; conditions: for concentration at which emergence of a brown-black cell population could be visually confirmed: second step
Description: 2014 Jan. 8; 4: 3594”. The medium used was […] A[…] medium (Ajinomoto Co., Inc.) (hereinafter AK03 medium). […] On the next day of seeding, FGF receptor inhibitor PD173074 (SIGMA) (final concentration 100 nM) was added to the A[…] medium (start of the first step), the medium was exchanged with A[…] medium added with an FGF receptor inhibitor every other day, and the cells were exposed to the FGF receptor inhibitor for 6 days in total (completion of the first step). […] On the first day of culture, A[…] (final concentration 10 μM) or A[…] medium without addition of Y-27632 as a comparison target was used. […] 2014 Jan. 8; 4: 3594”. The medium used was […] A[…] medium (Ajinomoto Co., Inc.) (hereinafter A[…] medium). […] On the next day of seeding, FGF receptor inhibitor PD173074 (SIGMA) (final concentration 100 nM) or MEK inhibitor PD0325901 (SIGMA) (final concentration 1 μM) was added to the A[…] medium (start of the first step), the medium was exchanged with A[…] medium added with an FGF receptor inhibitor or MEK inhibitor every other day, and the cells were exposed to FGF receptor inhibitor or MEK inhibitor for 6 days in total (completion of the first step). […] In the case of 1231A3 line, on the first day of culture, A[…] to a final concentration of 1 μM, 3 μM, 10 μM, 30 μM or 100 μM or, as a comparison target, A[…] medium without addition of Y-27632 was used. […] 2014 Jan. 8; 4: 3594”. The medium used was […] A[…] medium (Ajinomoto Co., Inc.) (hereinafter A[…] medium). […] On the next day of seeding, FGF receptor inhibitor PD173074 (SIGMA) (final concentration 100 nM) was added to the A[…] medium (start of the first step), the medium was exchanged every other day using A[…] medium added with FGF receptor inhibitor, and the cells were exposed to FGF receptor inhibitor for 6 days in total (completion of the first step). […] In the case of 1231A3 line, on the first day of culture, A[…] medium added with ROCK inhibitor Fasudil (Wako Pure Chemical Industries, Ltd.) to a final concentration of 10 μM, 30 μM or 100 μM or, as a comparison target, A[…] medium without addition of Fasudil was used.

[4] = tested on: human iPS cells (QHJI01 line); experiment: Production of RPE cells from iPS cells with a ROCK inhibitor or caspase inhibitor in the second step; visual observation of brown-black cell population; assay type: cell-based
[5] = first step 6 days: 1 μM PD0325901, 1.5, 3, 6 μM PD184352, 5, 10 μM U0126, 0.3 μM TAK-733, 0.3 μM AZD-8330, QHJI01 and 1231A3 lines, day 49 and day 50
[6] = first step 6 days: 100 nM PD173074, 5, 10, 20 μM SU5402, QHJI01 and 1231A3 lines, day 49 of culture
[7] = first step 6 days (1 μM PD0325901 or 100 nM PD173074), 201B7 and 1231A3 lines
[8] = first step 6 days (1 μM PD0325901 or 100 nM PD173074), 1231A3 line, day 43 of culture
[9] = first step 6 days (1 μM PD0325901 or 100 nM PD173074), Ff-I01 and QHJI01 lines, day 43 of culture

O=C(NOCC1CC1)c1ccc(F)c(F)c1Nc1ccc(I)cc1Cl [PD184352, (2-[(2-Chloro-4-iodophenyl)amino]-N-cyclopropylmethoxy)-3,4-difluorobenzamide] was tested, and the “emergence of a brown-black cell population” value [1, 5] was “could be confirmed over a wide area”.
Cc1c[nH]c(C=C2C(=O)Nc3ccccc32)c1CCC(=O)O [SU5402, 2-[(1,2-Dihydro-2-oxo-3H-indol-3-ylidene)methyl]-4-methyl-1H-pyrrole-3-propanoic acid] was tested, and the “emergence of a brown-black cell population” value [1, 6] was “could be confirmed over a wide area”.
NC(=O)c1ccc(-c2nc(-c3ccc4c(c3)OCO4)c(-c3ccccn3)[nH]2)cc1 [NODALi, 4-[4-(1,3-Benzodioxol-5-yl)-5-(pyridin-2-yl)-1H-imidazol-2-yl]benzamide] was tested, and the “emergence of cells showing typical characteristics of RPE cell” value [2] was “same level”.
For CCN(CC)CCCCNc1ncc2cc(-c3cc(OC)cc(OC)c3)c(NC(=O)NC(C)(C)C)nc2n1 [PD173074, N-[2-[[4-(Diethylamino)butyl]amino]-6-(3,5-dimethoxyphenyl)pyrido[2,3-d]pyrimidin-7-yl]-N′-(1,1-dimethylethyl)urea], the “emergence of a brown-black cell population” value ([1]; PD173074 100 nM, 6 days first step, AK03, ESSENTIAL 8 or STEMSURE hPSC Medium Δ w/o bFGF, 201B7 and/or 1231A3 line, 38 to 42 days of culture) was “could be confirmed over a wide area”, the “concentrations at which emergence of a brown-black cell population could be confirmed over a wide area” value ([1]; PD173074, all concentrations studied) was 25 to 400 nM and the “emergence of RPE cells showing typical characteristics of RPE cell” value [1, 7] was “could be confirmed”. The “emergence of a brown-black cell population” value [1, 8] was “could be confirmed over a wide area”, the “emergence of a brown-black cell population” value [1, 9] was “could be confirmed over a wide area” and the “emergence of a brown-black cell population” value [1, 6] was “could be confirmed over a wide area”. The “RT-PCR bands of retinal pigment epithelial cell markers RPE65, BEST1, CRALBP” value (RPE65, BEST1, CRALBP) was “clear bands could be confirmed”.
In the case of O=C(NOC[C@H](O)CO)c1ccc(F)c(F)c1Nc1ccc(I)cc1F [PD0325901, N-[(2R)-2,3-Dihydroxypropoxy]-3,4-difluoro-2-[(2-fluoro-4-iodophenyl)amino]-benzamide], the “emergence of a brown-black cell population” value ([1]; 1 μM PD0325901, exposure for 3 days and 6 days, 1231A3 line, day 37 of culture) is reported as “could be confirmed over a wide area”, the “emergence of colored cell population” value ([1]; 1 μM PD0325901, exposure for 13 days, 1231A3 line, day 37 of culture) is reported as “sufficient emergence of colored cell population was also confirmed” and the “cells showing typical characteristics of RPE cell” value ([1]; 1 μM PD0325901, exposure for one day, 1231A3 line, day 37 of culture) is reported as “almost no cell”. The “emergence of a brown-black cell population” value ([1]; PD0325901 1 μM (AK03 medium) or 0.03 μM (ESSENTIAL8 medium), 6 days first step, 201B7 and 1231A3 lines, 38 to 42 days of culture) was “could be confirmed over a wide area”, the “concentrations at which emergence of a brown-black cell population could be confirmed over a wide area” value ([1]; PD0325901, all concentrations studied) was 250 to 4000 nM and the “emergence of RPE cells showing typical characteristics of RPE cell” value [1, 7] was “could be confirmed”. For the same molecule, the “emergence of a brown-black cell population” value [1, 8] was “could be confirmed over a wide area”, the “emergence of a brown-black cell population” value [1, 9] was “could be confirmed over a wide area” and the “emergence of a brown-black cell population” value [1, 5] was “could be confirmed over a wide area”. For the same molecule, the “RT-PCR bands of retinal pigment epithelial cell markers RPE65, BEST1, CRALBP” value (RPE65, BEST1, CRALBP) was “clear bands could be confirmed”.
For N#CC(=C(N)Sc1ccccc1N)C(C#N)=C(N)Sc1ccccc1N [U0126, 1,4-Diamino-2,3-dicyano-1,4-bis[2-aminophenylthio]butadiene], the “emergence of a brown-black cell population” value [1, 5] was “could be confirmed over a wide area”.
With Cc1cc(C(=O)NOCCO)c(Nc2ccc(I)cc2F)n(C)c1=O [AZD-8330, 2-(2-fluoro-4-iodophenylamino)-N-(2-hydroxyethoxy)-1,5-dimethyl-6-oxo-1,6-dihydropyridine-3-carboxamide] the “emergence of a brown-black cell population” value [1, 5] was “could be confirmed over a wide area”.
In the case of NCCNS(=O)(=O)c1ccc(Cl)c2ccncc12 [WNTi, N-(2-Aminoethyl) chloroisoquinoline-8-sulfonamide], the “brown-black area in the whole well” value ([2]; second step days 1-12, single agent 3 μM CKI-7 with 10 μM Y-27632, day 43) is reported as “decreased” and the “emergence of cells showing typical characteristics of RPE cell” value [2] is reported as “sufficient number of cells”.
For O=S(=O)(c1cccc2cnccc12)N1CCCNCC1 [Fasudil, 1-(5-oquinolinesulfonyl)homopiperazine], the “concentration at which emergence of a brown-black cell population could be visually confirmed” value (“concentration at which emergence” for short) ([3]; tested 10, 30, 100 μM, 2.0×10^6 cells per well, first step FGF receptor inhibitor, day 41 of culture) was “not less than 10 μM” and the “emergence of a brown-black cell population” value ([4]; 10 μM in second step, 1.0×10^6 cells per well, first step FGF receptor inhibitor, day 48 of culture) was “could be visually confirmed”.
In the case of C[C@@H](N)[C@H]1CC[C@H](C(=O)Nc2ccncc2)CC1 [Y-27632, trans-4-[(1R)-1-aminoethyl]-N-4-pyridinylcyclohexanecarboxamide], the “emergence of a brown-black cell population” value ([3]; 10 μM in second step (days 1-13) after FGF receptor inhibitor (100 nM PD173074) first step, day 42 of culture) is reported as “could be visually confirmed”, the “concentration at which emergence” value ([3]; tested 1-100 μM, first step FGF receptor inhibitor or MEK inhibitor, day 48 of culture) is reported as “not less than 10 μM” and the “exposure period at which emergence of a brown-black cell population could be visually confirmed” value ([4]; 10 μM in second step, tested 3-20 days, first step MEK inhibitor, day 49 of culture) is reported as “not less than 6 days”. The “emergence of a brown-black cell population” value ([4]; 10 μM, 3 days of exposure in second step, first step MEK inhibitor, day 49 of culture) was “confirmed only slightly”, the “emergence of a brown-black cell population” value ([4]; low concentration (1 μM) in second step, 2.0×10^6 cells per well (10 times general number), first step FGF receptor inhibitor or MEK inhibitor, day 50) was “could be visually confirmed” and the “concentration at which emergence” value ([4]; second step, tested 1-100 μM, first step FGF receptor inhibitor or MEK inhibitor, day 50 of culture) was “not less than 3 μM”.
For COC(=O)C[C@H](NC(=O)[C@H](C)NC(=O)[C@@H](NC(=O)OCc1ccccc1)C(C)C)C(=O)CF (racemic) [Z-VAD-FMK, benzyloxycarbonyl-Val-Ala-DL-Asp(OMe)-fluoromethylketone], the “emergence of a brown-black cell population” value ([4]; 20 μM in second step, 2.0×10^6 cells per well, first step MEK inhibitor, day 65 or 67 of culture) was “could be visually confirmed”.
